Literature values in patent US7632832B2, “CGRP receptor antagonists” (Merck & Co., Inc., priority 2005, dated 2009).

Test system: CGRP
Conditions: marmoset, electrical stimulation of the trigeminal ganglion (Doods et al. 2000)

In the case of `NCCCC[C@H](NC(=O)[C@@H](Cc1cc(Br)c(O)c(Br)c1)NC(=O)N1CCC(N2Cc3ccccc3NC2=O)CC1)C(=O)N1CCN(c2ccncc2)CC1` [BIBN4096BS], the “effect on increase in facial blood flow” value is given as “blocked”.
